Data on 1 compound can be found in ChEMBL document CHEMBL3352618, “Discovery of novel pyrimidine and malonamide derivatives as TGR5 agonists” (Bioorg Med Chem Lett, 2014).

The structures appear in SMILES notation.

Holding throughout (assay type): ADME, organism-based
Data set [1] is described as follows: Half life in male ICR mouse at 5 mg/kg, iv. The settings on record: in vivo. Details: dose 5 mg/kg, route intravenous.
Data set [2] has as its system Mus musculus. In words: Volume of distribution at steady state in male ICR mouse at 10 mg/kg, po. Details: dose 10 mg/kg, route oral. The note with it: in vivo.
A short description of data set [3]: Cmax in male ICR mouse at 10 mg/kg, po. The settings on record: in vivo. Set-up: dose 10 mg/kg, route oral.
Data set [4] can be described thus: Mean residence time (last) in male ICR mouse at 10 mg/kg, po. Details: dose 10 mg/kg, route oral. The settings on record: in vivo.
A short description of data set [5]: AUC (0 to 7 hrs) in male ICR mouse at 5 mg/kg, iv. The settings on record: plasma. Details: time < 7 hr, dose 5 mg/kg, route intravenous.
The test system of data set [6] is Mus musculus. As to the kind of experiment: Volume of distribution at steady state in male ICR mouse at 5 mg/kg, iv. Details: dose 5 mg/kg, route intravenous. The settings on record: in vivo.
Data set [7] is described as follows: Tmax in male ICR mouse at 10 mg/kg, po. Set-up: dose 10 mg/kg, route oral. The note with it: in vivo.
For data set [8], the system named is Mus musculus. As to the kind of experiment: Mean residence time (last) in male ICR mouse at 5 mg/kg, iv. Set-up: dose 5 mg/kg, route intravenous. The settings on record: in vivo.
The nature of data set [9]: Clearance in male ICR mouse at 10 mg/kg, po. Set-up: dose 10 mg/kg, route oral. The note with it: in vivo.
A short description of data set [10]: Half life in male ICR mouse at 10 mg/kg, po. Set-up: dose 10 mg/kg, route oral. The note with it: in vivo.
Data set [11] is described as follows: AUC (0 to 7 hrs) in male ICR mouse at 10 mg/kg, po. Details: time < 7 hr, dose 10 mg/kg, route oral. The settings on record: plasma.
Data set [12] concerns Mus musculus. In words: Clearance in male ICR mouse at 5 mg/kg, iv. Details: dose 5 mg/kg, route intravenous. The note with it: in vivo.
Data set [13] is described as follows: Oral bioavailability in male ICR mouse at 10 mg/kg. The settings on record: in vivo.

The term half-life denotes how long it takes for the measured level to halve. One may read the Cmax as the peak of the concentration-time curve. In general, MRT last refers to the average time that molecules of a dose stay in the body. Broadly, the AUC(0-t) is the area under the concentration-time curve up to a stated or last time point. The low end stands for less exposure, the high end for more exposure. The term Tmax denotes the time at which the peak concentration occurs. As usually defined, the MRT is a mean duration of stay, worked out from the concentration-time curve. Broadly, the CL/F is the apparent clearance, not corrected for the fraction that reaches the circulation. As a reminder, the bioavailability is dose-corrected exposure relative to a reference, in per cent. Take `CN1CCN(C(=O)c2cnc(O)nc2Oc2cc(Cl)ccc2Cl)c2ccccc21`: the half-life in [1] was 1.45 h; in data set [10], 2.83 h. Besides, the Vdss with Mus musculus [2] came to 90.5 L/kg; with Mus musculus [6] it was 7.31 L/kg. The concentration in [3] peaked (Cmax) at 236 ng/mL. The MRT last in [4] worked out at 1.97 h. The AUC(0-t) at 7 h in data set [5] came out at 1430 ng·h/mL; in [11], 397 ng·h/mL. For the same compound, the Tmax in data set [7] was 1 h. This compound registered an MRT in the data set with Mus musculus [8] of 0.2 h. Moreover, the CL/F in data set [9] is 369 mL/min/kg. Moreover, in the data set on Mus musculus [12], the CL worked out at 58.2 mL/min/kg. Further, in data set [13], the bioavailability amounted to 13.9%.
